Experimental findings from article PMC6257796, “Effects of Eupatilin and Jaceosidin on Cytochrome P450 Enzyme Activities in Human Liver Microsomes” (Molecules, 2010) are described below.

SMILES strings stand for the structures.

Type in all cases: in vitro ADME
In one data set the test system is CYP3A. Kind of data set: Cocktail probe assay in pooled human liver microsomes: midazolam 1'-hydroxylation (IC50). Conditions: pooled human liver microsomes, 2.5 μM midazolam. The protocol: The inhibitory potencies (IC50 values) of eupatilin and jaceosidin were determined with CYP assays in the presence and absence of eupatilin and jaceosidin (final concentrations of 0.1−100 μM with acetonitrile concentration of less than 0.5% v/v) using pooled human liver microsomes. Phenacetin O-deethylase, coumarin 7-hydroxylase, amodiaquine N-deethylase, diclofenac hydroxylase, [S]-mephenytoin 4'-hydroxylase, bufuralol 1'-hydroxylase, and midazolam 1'-hydroxylase activities were determined as probe activities for CYP1A2, CYP2A6, CYP2C8, CYP2C9, CYP2C19, CYP2D6, and CYP3A, respectively, using cocktail incubation and tandem mass spectrometry. The incubation mixtures were prepared in a total volume of 200 μL as follows: pooled human liver microsomes (0.25 mg/mL), 1.3 mM NADPH, 3.3 mM MgCl2, 50 mM potassium phosphate buffer (pH 7.4), and a cocktail of probe substrates and various concentrations of eupatilin or jaceosidin (0.1−100 μM). […] After a 3 min preincubation at 37 °C, the reactions were initiated by adding NADPH and incubated for 20 min at 37 °C with shaking in a water bath. After incubation, the reaction was stopped by placing the tubes on ice and adding 100 μL of ice-cold acetonitrile containing internal standards (0.5 μg/mL [^13C,^15N]-acetaminophen for acetaminophen and N-desethylamodiaquine, 0.5 μg/mL [^2H5]-7-hydroxycoumarin for 7-hydroxycoumarin, 2.0 μg/mL [^13C6]-4-hydoxydiclofenac for 4-hydoxydiclofenac, 0.5 μg/mL [^2H3]-4'-hydoxymephenytoin for 4-hydoxymephenytoin and 1'-hydroxymidazolam, and 0.5 μg/mL [^2H7]-1'-hydroxybufuralol for 1'-hydroxybufuralol). The incubation mixtures were then centrifuged at 10,000× g for 5 min. All incubations were performedin triplicate.
To evaluate the effect of preincubation on inhibitory potency, eupatilin and jaceosidin (0.1−100 μM) were preincubated for 30 min with NADPH, buffer, and microsomes before the addition of the CYP probe substrates. The reaction was started by addition of the cocktail of probe substrates.
(§1) All seven metabolites produced from the cocktail of CYP isoform-specific substrates were simultaneously determined by LC/MS/MS. The system consisted of a tandem quadrupole mass spectrometer (TSQ Quantum Access, ThermoFisher Scientific, CA, USA) coupled with a Nanospace SI-2 LC system. The separation was performed on an Atlantis dC18 column (5 μm, 2.1 mm i.d. × 100 mm, Waters, Waltham, MA, USA) using the gradient elution of a mixture of 5% methanol in 0.1% formic acid (mobile phase A) and 95% methanol in 0.1% formic acid (mobile phase B) at a flow rate of 0.25 mL/min: 10% mobile phase B for 1 min, 10% to 95% mobile phase B for 1 min, 95% mobile phase B for 5 min. The column and autosampler temperatures were 50 °C and 4 °C, respectively. After 1.5 min, the LC eluant was diverted from waste to the mass spectrometer that was fitted with an electrospray ionization (ESI) source and operated in the positive ion mode. The ESI source settings for the ionization of the metabolites were as follows: electrospray voltage, 5.0 kV; vaporizer temperature, 420 °C; capillary temperature 360 °C; sheath gas pressure, 35 psi; auxiliary gas pressure, 10 psi. Quantification was performed by selected reaction monitoring (SRM) of the [M+H]^+ ion and the related product ion for each metabolite. The analytical data were processed using Xcalibur® software (ThermoFisher Scientific).
(§2) The IC50 values (concentration of inhibitor causing 50% inhibition of the original enzyme activity) were calculated using WinNonlin software, a non-linear regression analysis program (Pharsight, Mountain View, CA, USA). The apparent kinetic parameters for inhibitory potential (Ki values) were estimated from the fitted curves using Enzyme Kinetics Ver. 1.3 program (Systat Software Inc., San Jose, CA, USA).
On the technique in general: Microsomes from liver hold many membrane-bound enzymes, among them those of drug oxidation.

The target in the next data set is T1, CYP1A2 (Homo sapiens, UniProt P05177).
T1 construct: pooled human liver microsomes (0.25 mg/mL); tissue BD Gentest Co. H161; host or cells: pooled human liver microsomes
T1 sequence (P05177 1-516): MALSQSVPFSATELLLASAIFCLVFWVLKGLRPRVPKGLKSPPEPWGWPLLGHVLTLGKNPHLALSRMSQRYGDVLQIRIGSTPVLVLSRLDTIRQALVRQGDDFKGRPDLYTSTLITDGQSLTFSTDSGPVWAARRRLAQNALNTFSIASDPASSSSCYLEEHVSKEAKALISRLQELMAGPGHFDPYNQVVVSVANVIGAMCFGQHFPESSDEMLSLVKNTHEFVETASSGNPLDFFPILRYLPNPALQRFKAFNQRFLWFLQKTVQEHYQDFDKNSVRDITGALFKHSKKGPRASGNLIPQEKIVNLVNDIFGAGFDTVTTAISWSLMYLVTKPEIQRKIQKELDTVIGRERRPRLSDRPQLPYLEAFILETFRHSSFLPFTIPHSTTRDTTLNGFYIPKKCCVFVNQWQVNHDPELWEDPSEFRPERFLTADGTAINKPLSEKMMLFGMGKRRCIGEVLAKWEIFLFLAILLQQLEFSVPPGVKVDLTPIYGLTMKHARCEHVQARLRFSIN
Kind of data set: Kinetic analysis (Ki, inhibition type) in human liver microsomes: phenacetin O-deethylation. The settings on record: pooled human liver microsomes. The method, then:
(§3) The Ki values and inhibition types (competitive, noncompetitive, uncompetitive, or mixed) were determined for eupatilin and jaceosidin using Lineweaver plots, Dixon plots, and secondary reciprocal plots.
(§4) The reactions were initiated by addition of NADPH at 37 °C and stopped after 15 min by placing the incubation tubes on ice and adding 100 μL of ice-cold methanol containing an internal standard. The incubation mixtures were centrifuged at 10,000' g for 5 min, and aliquots (5 μL) of the supernatants were analyzed by liquid chromatography/tandem mass spectrometry (LC/MS/MS).
as §1, §2

A further data set deals with T2, CYP2C8 (Homo sapiens, UniProt P10632).
T2 construct: pooled human liver microsomes (0.25 mg/mL); tissue BD Gentest Co. H161; host or cells: pooled human liver microsomes
T2 sequence (P10632 1-490): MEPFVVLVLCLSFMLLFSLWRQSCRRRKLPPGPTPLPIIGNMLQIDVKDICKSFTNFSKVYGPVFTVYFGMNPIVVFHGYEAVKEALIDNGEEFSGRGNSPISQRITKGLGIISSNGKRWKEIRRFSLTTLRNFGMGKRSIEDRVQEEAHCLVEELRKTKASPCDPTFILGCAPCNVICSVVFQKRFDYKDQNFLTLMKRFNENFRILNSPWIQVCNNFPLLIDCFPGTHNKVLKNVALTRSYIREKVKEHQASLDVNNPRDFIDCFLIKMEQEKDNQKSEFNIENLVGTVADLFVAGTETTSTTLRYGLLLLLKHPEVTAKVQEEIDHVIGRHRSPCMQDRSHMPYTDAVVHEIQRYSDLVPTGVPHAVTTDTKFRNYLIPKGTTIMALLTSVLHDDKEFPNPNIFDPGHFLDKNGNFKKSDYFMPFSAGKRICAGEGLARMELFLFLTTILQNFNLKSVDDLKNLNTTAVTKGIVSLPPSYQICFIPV
In words: Kinetic analysis (Ki, inhibition type) in human liver microsomes: amodiaquine N-deethylation. Conditions: pooled human liver microsomes. The method, then:
as §3, §4, §1, §2

In another data set the target is T3, CYP2C9 (Homo sapiens, UniProt P11712).
T3 construct: pooled human liver microsomes (0.25 mg/mL); tissue BD Gentest Co. H161; host or cells: pooled human liver microsomes
In words: Kinetic analysis (Ki, inhibition type) in human liver microsomes: diclofenac 4-hydroxylation. Conditions: pooled human liver microsomes; for Inhibition type, diclofenac 4-hydroxylation (CYP2C9): Lineweaver, Dixon and secondary reciprocal plots. The protocol: as §3, §4, §1, §2

In the next data set the target is T4, CYP2C19 (Homo sapiens, UniProt P33261).
T4 construct: pooled human liver microsomes (0.25 mg/mL); tissue BD Gentest Co. H161; host or cells: pooled human liver microsomes
In words: Kinetic analysis (Ki, inhibition type) in human liver microsomes: [S]-mephenytoin 4'-hydroxylation. The settings on record: pooled human liver microsomes; for Inhibition type, S-mephenytoin 4'-hydroxylation (CYP2C19): Lineweaver, Dixon and secondary reciprocal plots. The method, then: as §3, §4, §1, §2

For the next data set, the target named is T5, CYP2D6 (Homo sapiens, UniProt P10635).
T5 construct: pooled human liver microsomes (0.25 mg/mL); tissue BD Gentest Co. H161; host or cells: pooled human liver microsomes
Kind of data set: Kinetic analysis (Ki, inhibition type) in human liver microsomes: bufuralol 1'-hydroxylation. The settings on record: pooled human liver microsomes. The protocol: as §3, §4, §1, §2

Setting [1] is: Lineweaver, Dixon and secondary reciprocal plots.

T4 sequence (P33261 whole entry): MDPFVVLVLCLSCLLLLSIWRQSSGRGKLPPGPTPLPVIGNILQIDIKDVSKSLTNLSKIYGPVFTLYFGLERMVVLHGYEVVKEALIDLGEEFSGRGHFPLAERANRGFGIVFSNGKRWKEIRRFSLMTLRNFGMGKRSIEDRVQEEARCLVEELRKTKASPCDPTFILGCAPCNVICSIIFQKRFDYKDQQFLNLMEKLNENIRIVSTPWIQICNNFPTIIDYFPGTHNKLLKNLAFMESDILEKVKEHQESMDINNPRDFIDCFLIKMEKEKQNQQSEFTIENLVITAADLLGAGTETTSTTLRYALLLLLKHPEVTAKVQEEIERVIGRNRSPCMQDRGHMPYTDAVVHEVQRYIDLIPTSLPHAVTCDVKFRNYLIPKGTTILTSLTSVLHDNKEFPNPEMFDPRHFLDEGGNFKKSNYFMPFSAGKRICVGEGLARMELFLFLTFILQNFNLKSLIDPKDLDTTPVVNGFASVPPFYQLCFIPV
T3 sequence (P11712 whole entry): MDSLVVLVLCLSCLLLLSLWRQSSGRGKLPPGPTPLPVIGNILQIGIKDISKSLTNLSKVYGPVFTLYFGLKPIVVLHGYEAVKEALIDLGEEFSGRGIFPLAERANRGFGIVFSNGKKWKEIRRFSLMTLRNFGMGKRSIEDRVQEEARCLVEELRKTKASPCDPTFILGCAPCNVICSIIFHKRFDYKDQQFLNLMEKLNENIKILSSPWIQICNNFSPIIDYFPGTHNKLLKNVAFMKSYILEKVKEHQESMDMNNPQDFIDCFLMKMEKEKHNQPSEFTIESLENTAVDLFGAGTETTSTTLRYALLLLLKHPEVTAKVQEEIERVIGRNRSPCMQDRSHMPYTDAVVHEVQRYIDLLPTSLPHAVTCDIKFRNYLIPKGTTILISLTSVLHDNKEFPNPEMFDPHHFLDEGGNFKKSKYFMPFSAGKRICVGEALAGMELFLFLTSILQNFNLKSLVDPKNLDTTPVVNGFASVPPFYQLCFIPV
T5 sequence (P10635 whole entry): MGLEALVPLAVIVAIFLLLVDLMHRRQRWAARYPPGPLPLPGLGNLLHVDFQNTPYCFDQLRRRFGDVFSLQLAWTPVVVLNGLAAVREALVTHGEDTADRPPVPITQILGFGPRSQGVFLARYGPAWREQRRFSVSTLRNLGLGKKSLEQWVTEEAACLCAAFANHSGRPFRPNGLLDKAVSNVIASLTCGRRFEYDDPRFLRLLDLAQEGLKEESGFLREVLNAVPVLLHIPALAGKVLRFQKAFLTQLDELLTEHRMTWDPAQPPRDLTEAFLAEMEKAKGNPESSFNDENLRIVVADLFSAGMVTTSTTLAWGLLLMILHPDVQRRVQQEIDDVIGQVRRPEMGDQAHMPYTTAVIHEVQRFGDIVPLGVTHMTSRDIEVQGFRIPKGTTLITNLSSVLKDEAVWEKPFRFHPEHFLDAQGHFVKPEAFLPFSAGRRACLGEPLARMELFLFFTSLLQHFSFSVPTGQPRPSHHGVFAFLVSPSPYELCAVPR

What is called Ki is the equilibrium dissociation constant of an inhibitor or competing ligand from its target. A high value points to weaker binding. For `COc1cc(-c2cc(=O)c3c(O)c(OC)c(O)cc3o2)ccc1O` [jaceosidin, 5,7-dihydroxy-2-(4-hydroxy-3-methoxyphenyl)-6-methoxychromen-4-one], the “IC50, midazolam 1'-hydroxylation (CYP3A)” value in the data set with CYP3A (no preincubation) and in the data set on CYP3A (with 30 min preincubation in presence of NADPH) was “No inhibition” in each case. The inhibitory constant (Ki) on CYP1A2 (10-100 μM phenacetin) amounted to 3.8 ± 0.23 µM; on CYP2C8 (0.5-5 μM amodiaquine), 109 ± 7.3 µM; at CYP2C9 (1-50 μM diclofenac), 6.4 ± 0.25 µM; at CYP2C19 (10-100 μM [S]-mephenytoin) it was 45.1 ± 4.2 µM; on CYP2D6 (0.5-5 μM bufuralol), 57.8 ± 3.6 µM. Besides, at CYP1A2 (setting [1]), the “Inhibition type, phenacetin O-deethylation (CYP1A2)” value is on record as “competitive”. For the same compound, the “Inhibition type, amodiaquine N-deethylation (CYP2C8)” value at CYP2C8 (setting [1]) is reported as “competitive”. The “Inhibition type, diclofenac 4-hydroxylation (CYP2C9)” value on CYP2C9 and at CYP2C9 (listed as Jaceosidin) was “competitive” each time. Besides, the “Inhibition type, S-mephenytoin 4'-hydroxylation (CYP2C19)” value on CYP2C19 was “mixed”; at CYP2C19 (listed as Jaceosidin), “mixed type”. In addition, at CYP2D6 (setting [1]), the “Inhibition type, bufuralol 1'-hydroxylation (CYP2D6)” value is reported as “competitive”.
